Source: patent US6274715A, “Tricyclic erythromycin derivatives” (priority 1997, dated 2001)
≈ marks a conversion by molar mass, not a printed value.

What was measured:
Format in all cases: cell-based
[1] = system: MYCOBACTERIUM SMEGMATIS ATCC 114; assay: In vitro antibacterial activity, MIC, BHI agar dilution; conditions: M. smegmatis ATCC 114, unit assumed
[2] = system: STAPHYLOCOCCUS AUREUS NCTC10649M; assay: as above; conditions: S. aureus NCTC10649M, unit assumed
[3] = system: STREPTOCOCCUS PYOGENES 930; assay: as above; conditions: S. pyogenes 930, unit assumed
[4] = system: PSEUDOMONAS AERUGINOSA DPHD-5263; assay: as above; conditions: P. aeruginosa DPHD-5263, unit assumed
[5] = system: STAPHYLOCOCCUS AUREUS CMX 553; assay: as above; conditions: S. aureus CMX 553, unit assumed
[6] = system: ESCHERICHIA COLI KNK 437; conditions: E. coli KNK 437; BHI agar; unit assumed
[7] = system: STAPHYLOCOCCUS AUREUS ATCC 6538P; assay: In vitro antibacterial activity, MIC, BHI agar dilution; conditions: S. aureus ATCC 6538P, 35-37° C., 20 to 24 hours, unit assumed
[8] = system: STAPHYLOCOCCUS AUREUS 1775; assay: as above; conditions: S. aureus 1775, unit assumed
[9] = system: ENTEROBACTER AEROGENES ATCC 13048; assay: as above; conditions: E. aerogenes ATCC 13048, unit assumed
[10] = system: STAPHYLOCOCCUS AUREUS A5177; assay: as above; conditions: S. aureus A5177, unit assumed
[11] = system: PSEUDOMONAS AERUGINOSA 5007; assay: as above; conditions: P. aeruginosa 5007, unit assumed
[12] = system: STAPHYLOCOCCUS AUREUS A-5278; assay: as above; conditions: S. aureus A-5278, unit assumed
[13] = system: PSEUDOMONAS AERUGINOSA K799/61; assay: as above; conditions: P. aeruginosa K799/61, unit assumed
[14] = system: ESCHERICHIA COLI SS; assay: as above; conditions: E. coli SS, unit assumed
[15] = system: ESCHERICHIA COLI DC-2; assay: as above; conditions: E. coli DC-2, unit assumed
[16] = system: KLEBSIELLA PNEUMONIAE ATCC 8045; assay: as above; conditions: K. pneumoniae ATCC 8045, unit assumed
[17] = system: ESCHERICHIA COLI H560; assay: as above; conditions: E. coli H560, unit assumed
[18] = system: STREPTOCOCCUS BOVIS A-5169; assay: as above; conditions: S. bovis A-5169, unit assumed
[19] = system: PSEUDOMONAS AERUGINOSA K799/WT; assay: as above; conditions: P. aeruginosa K799/WT, unit assumed
[20] = system: STAPHYLOCOCCUS EPIDERMIDIS 3519; conditions: S. epidermidis 3519; BHI agar; unit assumed
[21] = system: STAPHYLOCOCCUS AUREUS CMX 642A; assay: In vitro antibacterial activity, MIC, BHI agar dilution; conditions: S. aureus CMX 642A, unit assumed
[22] = system: STREPTOCOCCUS PYOGENES EES61; assay: as above; conditions: S. pyogenes EES61, unit assumed
[23] = system: PSEUDOMONAS CEPACIA 296I; assay: as above; conditions: P. cepacia 296I, unit assumed
[24] = system: PROVIDENCIA STUARTII CMX 640; conditions: P. stuartii CMX 640; BHI agar; unit assumed
[25] = system: M[…] ATCC 9341; assay: In vitro antibacterial activity, MIC, BHI agar dilution; conditions: M. luteus ATCC 9341, unit assumed
Description: (§1) Representative compounds of the present invention were assayed in vitro for antibacterial activity as follows: Twelve petri dishes containing successive aqueous dilutions of the test compound mixed with 10 mL of sterilized Brain Heart Infusion (BHI) agar (Difco 0418-01-5) were prepared. Each plate was inoculated with 1:100 (or 1:10 for slow-growing strains, such as Micrococcus and Streptococcus) dilutions of up to 32 different microorganisms, using a Steers replicator block. The inoculated plates were incubated at 35-37° C. for 20 to 24 hours. In addition, a control plate, using BHI agar containing no test compound, was prepared and incubated at the beginning and end of each test.
(§2) An additional plate containing a compound having known susceptibility patterns for the organisms being tested and belonging to the same antibiotic class as the test compound was also prepared and incubated as a further control, as well as to provide test-to-test comparability. Erythromycin A was used for this purpose.
(§3) After incubation, each plate was visually inspected. The minimum inhibitory concentration (MIC) was defmed as the lowest concentration of drug yielding no growth, a slight haze, or sparsely isolated colonies on the inoculum spot as compared to the growth control.

[26] = system: EN[…] ATCC 8043; assay: as above; conditions: E. faecium ATCC 8043, unit assumed
Description: as §1, §2, §3

[27] = system: M[…] ATCC 4698; assay: as above; conditions: M. luteus ATCC 4698, unit assumed
Description: as §1, §2, §3

[28] = system: STR[…] 508; assay: as above; conditions: S. agalactiae CMX 508, unit assumed
Description: as §1, §2, §3

[29] = system: ESCHERICHIA COLI JUHL; conditions: E. coli JUHL; BHI agar; unit assumed
[30] = system: CANDIDA ALBICANS CCH 442; assay: In vitro antibacterial activity, MIC, BHI agar dilution; conditions: C. albicans CCH 442, unit assumed
[31] = system: PSEUDOMONAS AERUGINOSA DPHD-2862; assay: as above; conditions: P. aeruginosa DPHD-2862, unit assumed
[32] = system: PSEUDOMONAS AERUGINOSA BMH10; assay: as above; conditions: P. aeruginosa BMH10, unit assumed

Structure (SMILES)	MIC [1]	MIC [2]	MIC [3]	MIC [4]	MIC [5]	MIC [6]	MIC [7]	MIC [8]	MIC [9]	MIC [10]	MIC [11]	MIC [12]	MIC [13]	MIC [14]	MIC [15]	MIC [16]	MIC [17]	MIC [18]	MIC [19]	MIC [20]	other results
CC[C@H]1OC(=O)[C@H](C)C(=O)[C@H](C)[C@@H](O[C@@H]2O[C@H](C)C[C@H](N(C)C)[C@H]2O)[C@](C)(OC)C[C@@H](C)C2=N[C@@H](COCc3ccncc3)CN3C(=O)O[C@@]1(C)[C@H]3[C@H]2C [Example 86]	0.78 µg/mL (≈ 1.03 µM)	0.39 µg/mL (≈ 0.514 µM)	> 100 µg/mL	> 100 µg/mL	0.39 µg/mL (≈ 0.514 µM)	> 100 µg/mL	0.39 µg/mL (≈ 0.514 µM)	> 100 µg/mL	> 100 µg/mL	0.2 µg/mL (≈ 0.264 µM)	> 100 µg/mL	> 100 µg/mL	1.56 µg/mL (≈ 2.06 µM)	0.39 µg/mL (≈ 0.514 µM)	100 µg/mL (≈ 132 µM)	> 100 µg/mL	50 µg/mL (≈ 65.9 µM)	≤ 0.005 µg/mL	100 µg/mL (≈ 132 µM)	0.39 µg/mL (≈ 0.514 µM)	MIC [21]: 0.39 µg/mL (≈ 0.514 µM); MIC [22]: < 0.005 µg/mL; MIC [23]: > 100 µg/mL; MIC [24]: > 100 µg/mL; MIC [25]: 0.05 µg/mL (≈ 0.0659 µM); MIC [26]: 0.05 µg/mL (≈ 0.0659 µM); MIC [27]: 0.39 µg/mL (≈ 0.514 µM); MIC [28]: 0.01 µg/mL (≈ 0.0132 µM); MIC [29]: > 100 µg/mL; MIC [30]: > 100 µg/mL; MIC [31]: > 100 µg/mL; MIC [32]: > 100 µg/mL
CC[C@H]1OC(=O)[C@H](C)C(=O)[C@H](C)[C@@H](O[C@@H]2O[C@H](C)C[C@H](N(C)C)[C@H]2O)[C@](C)(OC)C[C@@H](C)C2=N[C@H](COCc3ccncc3)CN3C(=O)O[C@@]1(C)[C@H]3[C@H]2C [Example 77]	0.78 µg/mL (≈ 1.03 µM)	0.39 µg/mL (≈ 0.514 µM)	> 100 µg/mL	> 100 µg/mL	0.39 µg/mL (≈ 0.514 µM)	> 100 µg/mL	0.39 µg/mL (≈ 0.514 µM)	> 100 µg/mL	> 100 µg/mL	0.2 µg/mL (≈ 0.264 µM)	> 100 µg/mL	> 100 µg/mL	1.56 µg/mL (≈ 2.06 µM)	0.39 µg/mL (≈ 0.514 µM)	100 µg/mL (≈ 132 µM)	> 100 µg/mL	50 µg/mL (≈ 65.9 µM)	≤ 0.005 µg/mL	100 µg/mL (≈ 132 µM)	0.39 µg/mL (≈ 0.514 µM)	MIC [21]: 0.39 µg/mL (≈ 0.514 µM); MIC [22]: < 0.005 µg/mL; MIC [23]: > 100 µg/mL; MIC [24]: > 100 µg/mL; MIC [25]: 0.05 µg/mL (≈ 0.0659 µM); MIC [26]: 0.05 µg/mL (≈ 0.0659 µM); MIC [27]: 0.39 µg/mL (≈ 0.514 µM); MIC [28]: 0.01 µg/mL (≈ 0.0132 µM); MIC [29]: > 100 µg/mL; MIC [30]: > 100 µg/mL; MIC [31]: > 100 µg/mL; MIC [32]: > 100 µg/mL
CC[C@H]1OC(=O)[C@H](C)C(=O)[C@H](C)[C@@H](O[C@@H]2O[C@H](C)C[C@H](N(C)C)[C@H]2O)[C@](C)(OC)C[C@@H](C)C2=NC3CCCCC3N3C(=O)O[C@@]1(C)[C@H]3[C@H]2C (stereo partly drawn) [Example 106]	3.1 µg/mL (≈ 4.48 µM)	0.2 µg/mL (≈ 0.289 µM)	> 100 µg/mL	100 µg/mL (≈ 145 µM)	0.2 µg/mL (≈ 0.289 µM)	25 µg/mL (≈ 36.1 µM)	0.2 µg/mL (≈ 0.289 µM)	> 100 µg/mL	50 µg/mL (≈ 72.3 µM)	0.2 µg/mL (≈ 0.289 µM)	> 100 µg/mL	> 100 µg/mL	0.78 µg/mL (≈ 1.13 µM)	0.39 µg/mL (≈ 0.564 µM)	25 µg/mL (≈ 36.1 µM)	100 µg/mL (≈ 145 µM)	12.5 µg/mL (≈ 18.1 µM)	≤ 0.005 µg/mL	100 µg/mL (≈ 145 µM)	0.2 µg/mL (≈ 0.289 µM)	MIC [21]: 0.39 µg/mL (≈ 0.564 µM); MIC [22]: ≤ 0.005 µg/mL; MIC [23]: 100 µg/mL (≈ 145 µM); MIC [24]: > 100 µg/mL; MIC [25]: 0.05 µg/mL (≈ 0.0723 µM); MIC [26]: 0.05 µg/mL (≈ 0.0723 µM); MIC [27]: 0.39 µg/mL (≈ 0.564 µM); MIC [28]: 0.02 µg/mL (≈ 0.0289 µM); MIC [29]: 25 µg/mL (≈ 36.1 µM); MIC [30]: > 100 µg/mL; MIC [31]: > 100 µg/mL; MIC [32]: 100 µg/mL (≈ 145 µM)
